≈ marks a conversion by molar mass, not a printed value. Read-outs that look alike come from different tables or passages of the source. Marks after values point to notes of the source that are not given here.
Legend:
[1] = tested on: E. coli; test: microbe, parasite or virus in culture; settings: for MIC: Escherichia coli
In short: (§1)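 MICs were scored by eye after 18-20 h static incubation at 37 °C, with bacteria at 5 × 10^5 CFU mL^−1 in MHB. Peptides were serially diluted 2-fold over 12 points, top 128 or 64 μg mL^−1. CAMHB (CLSI) and 1% agarose-MHB variants were also run, at least six replicates.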

[2] = tested on: K. pneumoniae; test: microbe, parasite or virus in culture; settings: for MIC: Klebsiella pneumoniae
In short: as §1

[3] = tested on: S. enterica Typhi; test: microbe, parasite or virus in culture
In short: as §1

[4] = tested on: P. aeruginosa; test: microbe, parasite or virus in culture; settings: mode of 6 replicates; for MIC: Pseudomonas aeruginosa
In short: as §1

[5] = tested on: E. coli ATCC 25922; assay type: cell-based, Escherichia coli
[6] = tested on: A. baumannii; test: microbe, parasite or virus in culture; settings: mode of 6 replicates
In short: as §1

[7] = tested on: S. aureus; test: microbe, parasite or virus in culture; settings: for BMD MIC: S. aureus ATCC 25923 MSSA, mode of 6 replicates
In short: as §1

[8] = tested on: A. baumannii clinical isolates; test: microbe, parasite or virus in culture
In short: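 MIC90 from CLSI broth microdilution (M07-A9) in two clinical-isolate panels. US panel (331 isolates, 2010-2012): AA139 diluted in 0.01% acetic acid/0.1% BSA. Worldwide panel (445 isolates, 2011-2013, four regions): CAMHB, with 0.002% Tween 80 added for AA139 and polymyxin B.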

[9] = BAA2146, read-out: BMD MIC, K. pneumoniae BAA-2146, MDR, ESBL, NDM-1 pos, MHB, mode of 6 replicates
[10] = E. coli ATCC 25922, FDA control strain, BMD with 5% Survanta lung surfactant, mode, or median where no mode, n=4 to 6, where n=2 differs the higher value

O=C(O)c1cn(C2CC2)c2cc(N3CCNCC3)c(F)cc2c1=O [Ciprofloxacin, ciprofloxacin]
MIC ([1]; ATCC25922, read-out: BMD MIC, E. coli ATCC 25922 FDA control strain, CAMHB, mode of 6 replicates): ≤ 0.25 µg/mL | MIC ([1]; ATCC25922, read-out: BMD MIC, E. coli ATCC 25922 FDA control strain, MHB, mode of 6 independent biological replicates): ≤ 0.25 µg/mL | MIC ([1]; ATCC700926 / MG1655, read-out: BMD MIC): ≤ 0.25 µg/mL | MIC ([1]; ATCC700928, read-out: BMD MIC, E. coli ATCC 700928 CFT073 UPEC, CAMHB, mode of 6 replicates): ≤ 0.25 µg/mL | MIC ([1]; read-out: BMD MIC): ≤ 0.25 µg/mL | MIC ([2]; ATCC13883, read-out: BMD MIC, K. pneumoniae ATCC 13883 type strain (polymyxin/colistin heteroresistant), MHB, mode of 6 replicates): ≤ 0.25 µg/mL | MIC [2, 9]: > 64 µg/mL | MIC ([3]; Salmonella enterica, ATCC14028 / TYPHI, read-out: BMD MIC): 0.004 µg/mL (≈ 0.0121 µM) | MIC ([4]; ATCC27853, read-out: BMD MIC, P. aeruginosa ATCC 27853 control strain, CAMHB): ≤ 0.25 µg/mL | MIC ([4]; ATCC27853, read-out: BMD MIC, P. aeruginosa ATCC 27853 control strain, MHB): 0.5 µg/mL (≈ 1.51 µM) | MIC, Survanta (5%) [5, 10]: ≤0.03

COc1cc(Cc2cnc(N)nc2N)cc(OC)c1OC [Trimethoprim]
MIC ([2]; ATCC13883, read-out: BMD MIC): 1 µg/mL (≈ 3.44 µM) | MIC ([2]; ATCC700603, read-out: BMD MIC, K. pneumoniae ATCC 700603 (K6), MDR, OXA-2/SHV-18, MHB, mode of 6 replicates): 4 µg/mL (≈ 13.8 µM) | MIC [2, 9]: > 64 µg/mL | MIC ([6]; Acinetobacter baumannii, ATCC19636, read-out: BMD MIC, A. baumannii ATCC 19636 type strain, MHB): 16 µg/mL (≈ 55.1 µM) | BMD MIC ([7]; CAMHB): 2 µg/mL | MIC ([7]; Staphylococcus aureus, ATCC25923 / MSSA, read-out: BMD MIC): 2 µg/mL (≈ 6.89 µM) | MIC ([4]; read-out: BMD MIC, P. aeruginosa FADDI-070, MDR, PmxR, MHB/CAMHB): 64 µg/mL (≈ 220 µM) | MIC, Survanta (5%) [5, 10]: 1

colistin
BMD MIC ([1]; E. coli ATCC 25922 FDA control strain, CAMHB, mode of 6 replicates): 0.06 to 0.125 µg/mL | BMD MIC ([1]; E. coli ATCC 25922 FDA control strain, MHB, mode of 6 independent biological replicates): 0.25 µg/mL | BMD MIC ([1]; E. coli ATCC 700926 K12 (MG1655), CAMHB, mode of 6 replicates): ≤0.03 µg/mL | BMD MIC ([1]; E. coli ATCC 700928 CFT073 UPEC, CAMHB, mode of 6 replicates): ≤0.25 µg/mL | BMD MIC ([1]; E. coli CI 12-6-83 Hong Kong, mcr-1 pos, ESBL, CAMHB, mode of 6 replicates): 4 µg/mL | BMD MIC ([2]; K. pneumoniae ATCC 13883 type strain (polymyxin/colistin heteroresistant), MHB, mode of 6 replicates): 0.03-4# μg mL-1 | BMD MIC ([2]; K. pneumoniae ATCC 700603 (K6), MDR, OXA-2/SHV-18, CAMHB, mode of 6 replicates): 0.125 µg/mL | BMD MIC ([2]; K. pneumoniae ATCC 700603 (K6), MDR, OXA-2/SHV-18, MHB, mode of 6 replicates): 0.03 µg/mL | BMD MIC ([2]; K. pneumoniae BAA-2146, MDR, ESBL, NDM-1 pos, MHB, mode of 6 replicates): 0.06 µg/mL | BMD MIC ([2]; K. pneumoniae Greece CI 8_GR_13, XDR, KPC-2, PmxR, MHB, mode of 6 replicates): >64 µg/mL | BMD MIC ([6]; A. baumannii ATCC 19636 type strain, CAMHB): 0.06 µg/mL | BMD MIC ([6]; A. baumannii ATCC 19636 type strain, MHB): 0.06 µg/mL | BMD MIC ([6]; A. baumannii Greece CI, XDR, PmxR, MHB): >32 µg/mL | BMD MIC ([3]; S. enterica Typhi ATCC 14028 control strain, CDC 6516-60, CAMHB, mode of 6 replicates): 0.03 µg/mL | BMD MIC ([7]; MHB): >128 µg/mL | BMD MIC ([4]; P. aeruginosa ATCC 27853 control strain, CAMHB): 0.125 µg/mL | BMD MIC ([4]; P. aeruginosa ATCC 27853 control strain, MHB): 0.125 µg/mL | BMD MIC ([4]; P. aeruginosa FADDI-070, MDR, PmxR, MHB/CAMHB): 64 µg/mL | MIC ([8]; US isolates 2010-2012, isolate CID 1919446, Rep 1): 2 µg/mL | MIC ([8]; US isolates 2010-2012, isolate CID 1919446, Rep 2): 1 µg/mL | MIC ([8]; US isolates 2010-2012, isolate CID 1919519, Rep 1): 1 µg/mL | MIC ([8]; US isolates 2010-2012, isolate CID 1919519, Rep 2): 0.5 µg/mL | MIC ([8]; US isolates 2010-2012, isolate CID 1919714, Rep 1): > 32 µg/mL | MIC ([8]; US isolates 2010-2012, isolate CID 1919714, Rep 2): > 32 µg/mL | MIC ([8]; US isolates 2010-2012, isolate CID 1919942, Rep 1): 2 µg/mL | MIC ([8]; US isolates 2010-2012, isolate CID 1919942, Rep 2): 2 µg/mL | MIC ([8]; US isolates 2010-2012, isolate CID 1930670, Rep 1): 4 µg/mL | MIC ([8]; US isolates 2010-2012, isolate CID 1930670, Rep 2): 2 µg/mL | MIC ([8]; US isolates 2010-2012, isolate CID 1930676, Rep 1): 4 µg/mL | MIC ([8]; US isolates 2010-2012, isolate CID 1930676, Rep 2): 2 µg/mL | MIC ([8]; US isolates 2010-2012, isolate CID 2727597, Rep 1): > 32 µg/mL | MIC ([8]; US isolates 2010-2012, isolate CID 2727597, Rep 2): 32 µg/mL | MIC ([8]; US isolates 2010-2012, isolate CID 2727598, Rep 1): 2 µg/mL | MIC ([8]; US isolates 2010-2012, isolate CID 2727598, Rep 2): 2 µg/mL | MIC ([8]; US isolates 2010-2012, isolate CID 2727898, Rep 1): 8 µg/mL | MIC ([8]; US isolates 2010-2012, isolate CID 2727898, Rep 2): 8 µg/mL | MIC ([8]; US isolates 2010-2012, isolate CID 2728115, Rep 1): 4 µg/mL | MIC ([8]; US isolates 2010-2012, isolate CID 2728115, Rep 2): 1 µg/mL | MIC ([8]; US isolates 2010-2012, isolate CID 2728119, Rep 1): 2 µg/mL | MIC ([8]; US isolates 2010-2012, isolate CID 2728119, Rep 2): 2 µg/mL | MIC ([8]; US isolates 2010-2012, isolate CID 2728650, Rep 1): 8 µg/mL | MIC ([8]; US isolates 2010-2012, isolate CID 2728650, Rep 2): 2 µg/mL | MIC ([8]; US isolates 2010-2012, isolate CID 2728663, Rep 1): 0.5 µg/mL | MIC ([8]; US isolates 2010-2012, isolate CID 2728663, Rep 2): 0.5 µg/mL | MIC ([8]; US isolates 2010-2012, isolate CID 2732481, Rep 1): > 32 µg/mL | MIC ([8]; US isolates 2010-2012, isolate CID 2732481, Rep 2): > 32 µg/mL | MIC ([8]; US isolates 2010-2012, isolate CID 2732486, Rep 1): 1 µg/mL | MIC ([8]; US isolates 2010-2012, isolate CID 2732486, Rep 2): 1 µg/mL | MIC ([8]; US isolates 2010-2012, isolate CID 2762740, Rep 1): > 32 µg/mL | MIC ([8]; US isolates 2010-2012, isolate CID 2762740, Rep 2): 32 µg/mL | MIC ([8]; US isolates 2010-2012, isolate CID 2801947, Rep 1): 1 µg/mL | MIC ([8]; US isolates 2010-2012, isolate CID 2801947, Rep 2): 0.5 µg/mL | MIC ([8]; US isolates 2010-2012, isolate CID 2801949, Rep 1): 0.25 µg/mL | MIC ([8]; US isolates 2010-2012, isolate CID 2801949, Rep 2): 0.5 µg/mL | MIC ([8]; US isolates 2010-2012, isolate CID 2802027, Rep 1): 0.5 µg/mL | MIC ([8]; US isolates 2010-2012, isolate CID 2802027, Rep 2): 1 µg/mL | MIC ([8]; US isolates 2010-2012, isolate CID 2802028, Rep 1): 0.5 µg/mL | MIC ([8]; US isolates 2010-2012, isolate CID 2802028, Rep 2): 1 µg/mL | MIC ([8]; US isolates 2010-2012, isolate CID 2802029, Rep 1): 0.5 µg/mL | MIC ([8]; US isolates 2010-2012, isolate CID 2802029, Rep 2): 0.5 µg/mL | MIC ([8]; US isolates 2010-2012, isolate CID 2802031, Rep 1): 0.5 µg/mL | MIC ([8]; US isolates 2010-2012, isolate CID 2802031, Rep 2): 0.5 µg/mL | MIC ([8]; US isolates 2010-2012, isolate CID 2802109, Rep 2): 0.5 µg/mL | MIC ([8]; US isolates 2010-2012, isolate CID 2802111, Rep 2): 0.25 µg/mL | MIC ([8]; US isolates 2010-2012, isolate CID 2802187, Rep 1): 1 µg/mL | MIC ([8]; US isolates 2010-2012, isolate CID 2802187, Rep 2): 1 µg/mL | MIC, Survanta (5%) [5, 10]: ≤0.06 | MIC, Survanta (5%) ([5]; E. coli ATCC 25922, MHB + 5% (v/v) lung surfactant, n=2 to 6, mode or median): ≤ 0.06 µg/mL
